# Experimental data: publication PMC7587356, “High-Throughput Screening for Inhibitors of the SARS-CoV-2 Protease Using a FRET-Biosensor” (Molecules, 2020)
# Structures can show the parent of a compound that is named as a salt. Where two headings read alike, the source gives them in different places.
# Target: SARS-CoV-2 3CLpro (Severe acute respiratory syndrome coronavirus 2, UniProt P0DTD1)
# Assay: biochemical
# Format: biochemical
# Set-up: Replicate_1 / Replicate_2 / mean / mean (LOPAC_screen_w_protease): unit not given here
# Conditions: for inhibition at 5 µM: 4 h
# [1] = sheet LOPAC_screen_w_protease, LOPAC1280 primary screen with protease, 5 µM compound, mean of the two replicates
# [2] = sheet LOPAC_screen_w_protease, LOPAC1280 primary screen with protease, 5 µM compound, replicate 1
# [3] = sheet LOPAC_screen_w_protease, LOPAC1280 primary screen with protease, 5 µM compound, replicate 2
# [4] = sheet LOPAC_screen_w_protease, primary screen with protease, compound at 5 µM, mean of two replicates
# [5] = sheet LOPAC_screen_w_protease, primary screen with protease, compound at 5 µM, replicate 1
# [6] = sheet LOPAC_screen_w_protease, primary screen with protease, compound at 5 µM, replicate 2
# [7] = sheet LOPAC_screen_w_protease, LOPAC1280 at 5 µM, mean of two replicates, read-out: mean
# [8] = sheet LOPAC_screen_w_protease, LOPAC1280 at 5 µM, replicate 1, read-out: Replicate_1
# [9] = sheet LOPAC_screen_w_protease, LOPAC1280 at 5 µM, replicate 2, read-out: Replicate_2
# [10] = sheet LOPAC_screen_w_protease, primary screen with protease, 5 µM, mean of two replicates
# [11] = sheet LOPAC_screen_w_protease, primary screen with protease, 5 µM, replicate 1
# [12] = sheet LOPAC_screen_w_protease, primary screen with protease, 5 µM, replicate 2
# [13] = sheet LOPAC_screen_w_protease, primary screen of LOPAC1280 at 5 µM with protease, mean of the two replicates
# [14] = sheet LOPAC_screen_w_protease, primary screen of LOPAC1280 at 5 µM with protease, replicate 1
# [15] = sheet LOPAC_screen_w_protease, primary screen of LOPAC1280 at 5 µM with protease, replicate 2
# [16] = sheet LOPAC_screen_w_protease, LOPAC1280 primary screen at 5 µM, with protease, mean of the two replicates
# [17] = sheet LOPAC_screen_w_protease, LOPAC1280 primary screen at 5 µM, with protease, replicate 1
# [18] = sheet LOPAC_screen_w_protease, LOPAC1280 primary screen at 5 µM, with protease, replicate 2
# [19] = LOPAC1280 primary screen with protease, 5 µM compound, replicate 1, read-out: Replicate_1 (LOPAC_screen_w_protease)
# [20] = LOPAC1280 primary screen with protease, 5 µM compound, replicate 2, read-out: Replicate_2 (LOPAC_screen_w_protease)
# [21] = LOPAC1280 primary screen with protease, 5 µM compound, mean of two replicates
# [22] = sheet LOPAC_screen_w_protease, primary screen of LOPAC1280 at 5 µM with protease, mean of the two replicates, read-out: mean
# [23] = sheet LOPAC_screen_w_protease, primary screen of LOPAC1280 at 5 µM with protease, replicate 1, read-out: Replicate_1
# [24] = sheet LOPAC_screen_w_protease, primary screen of LOPAC1280 at 5 µM with protease, replicate 2, read-out: Replicate_2
# [25] = LOPAC1280 primary screen with protease, 5 µM compound, replicate 1
# [26] = LOPAC1280 primary screen with protease, 5 µM compound, replicate 2
# [27] = LOPAC1280 primary screen with protease, 5 µM compound, mean of the two replicates
structure (smiles),measurement,setting,value
CCOC(=O)N1CCC(=C2c3ccc(Cl)cc3CCc3cccnc32)CC1 [Loratadine],inhibition at 5 µM,"sheet LOPAC_screen_w_protease, LOPAC1280 primary screen at 5 µM, with protease, mean of the two replicates, read-out: mean",0.729%
same,inhibition at 5 µM,"sheet LOPAC_screen_w_protease, LOPAC1280 primary screen at 5 µM, with protease, replicate 1, read-out: Replicate_1",-0.189%
same,inhibition at 5 µM,"sheet LOPAC_screen_w_protease, LOPAC1280 primary screen at 5 µM, with protease, replicate 2, read-out: Replicate_2",1.65%
O=c1cc(-c2ccc(O)cc2)oc2cc(O)cc(O)c12 [Apigenin],inhibition at 5 µM,read-out: Replicate_1,0.663%
same,inhibition at 5 µM,read-out: Replicate_2,-0.402%
same,inhibition at 5 µM,read-out: mean,0.131%
CSC(N)=NCCC[C@H](N)C(=O)O [S-Methyl-L-thiocitrulline acetate],inhibition at 5 µM,"sheet LOPAC_screen_w_protease, primary screen with protease, compound at 5 µM, mean of two replicates, read-out: mean",2.62%
same,inhibition at 5 µM,"sheet LOPAC_screen_w_protease, primary screen with protease, compound at 5 µM, replicate 1, read-out: Replicate_1",2.21%
same,inhibition at 5 µM,"sheet LOPAC_screen_w_protease, primary screen with protease, compound at 5 µM, replicate 2, read-out: Replicate_2",3.04%
NC(N)=Nc1ccc2[nH]c3c(c2c1)C[C@@]1(O)[C@H]2Cc4ccc(O)c5c4[C@@]1(CCN2CC1CC1)[C@H]3O5.O=C(O)C(F)(F)F.O=C(O)C(F)(F)F,mean,[1],5.687
same,Replicate_1,[2],7.859
same,Replicate_2,[3],3.515
NC(=O)c1cc[n+](CC2=C(C(=O)[O-])N3C(=O)[C@@H](NC(=O)C(c4ccccc4)S(=O)(=O)[O-])[C@H]3SC2)cc1.O.[Na+] (some centres unmarked) [Cefsulodin sodium salt hydrate],mean,[4],2.816
same,Replicate_1,[5],2.052
same,Replicate_2,[6],3.58
CN(C)C/C=C(/c1ccc(Br)cc1)c1cccnc1 [Zimelidine dihydrochloride],inhibition at 5 µM,[7],0.989%
same,inhibition at 5 µM,[8],1.05%
same,inhibition at 5 µM,[9],0.928%
CC(C)(C)c1cc(/C=C(\C#N)C(N)=S)cc(C(C)(C)C)c1O [Tyrphostin AG 879],inhibition at 5 µM,"sheet LOPAC_screen_w_protease, LOPAC1280 primary screen with protease, 5 µM compound, mean of the two replicates, read-out: mean",5.5%
same,inhibition at 5 µM,"sheet LOPAC_screen_w_protease, LOPAC1280 primary screen with protease, 5 µM compound, replicate 1, read-out: Replicate_1",5.93%
same,inhibition at 5 µM,"sheet LOPAC_screen_w_protease, LOPAC1280 primary screen with protease, 5 µM compound, replicate 2, read-out: Replicate_2",5.07%
NC(=O)N1c2ccccc2C=Cc2ccccc21 [Carbamazepine],mean (LOPAC_screen_w_protease),,1.395
same,inhibition at 5 µM,read-out: Replicate_1 (LOPAC_screen_w_protease),1.4%
same,inhibition at 5 µM,read-out: Replicate_2 (LOPAC_screen_w_protease),1.39%
CC(=O)NNC(=O)N1Cc2ccccc2Oc2ccc(Cl)cc21 [SC 19220],mean,[10],0.1868
same,Replicate_1,[11],1.1062
same,Replicate_2,[12],-0.7326
CCCCN1CCC(n2c(=O)[nH]c3ccccc32)CC1.O=C(O)C(=O)O [NS 521 oxalate],mean,[13],3.504
same,Replicate_1,[14],2.6467
same,Replicate_2,[15],4.361
Cl.Cn1ccc2cc(NC(=O)Nc3cccnc3)ccc21 [SB 200646 hydrochloride],mean,[4],2.882
same,Replicate_1,[5],2.958
same,Replicate_2,[6],2.805
N[C@H](CCC(=O)NCS(=O)(=O)O)C(=O)O [gamma-D-Glutamylaminomethylsulfonic acid],mean,"sheet LOPAC_screen_w_protease, LOPAC1280 at 5 µM, mean of two replicates",1.223
same,Replicate_1,"sheet LOPAC_screen_w_protease, LOPAC1280 at 5 µM, replicate 1",4.708
same,Replicate_2,"sheet LOPAC_screen_w_protease, LOPAC1280 at 5 µM, replicate 2",-2.2619
CC(=O)c1c(O)c(C)c(O)c(Cc2c(O)c3c(c(C(=O)/C=C/c4ccccc4)c2O)OC(C)(C)C=C3)c1O [Rottlerin],inhibition at 5 µM,read-out: Replicate_1,4.21%
same,inhibition at 5 µM,read-out: Replicate_2,5.11%
same,inhibition at 5 µM,read-out: mean,4.66%
O=[N+]([O-])c1ccc(O[C@@H]2O[C@H](CO)[C@@H](O)[C@H](O)[C@H]2F)c([N+](=O)[O-])c1,mean,[16],0.5921
same,Replicate_1,[17],1.883
same,Replicate_2,[18],-0.6983
"CN1[C@@H]2CC[C@H]1C[C@@H](OC(=O)c1cc(Cl)cc(Cl)c1)C2 [3-Tropanyl-3,5-dichlorobenzoate]",inhibition at 5 µM,[19],2.08%
same,inhibition at 5 µM,[20],0.785%
same,mean (LOPAC_screen_w_protease),[21],1.4299
CO/N=C(\C(=O)N[C@@H]1C(=O)N2C(C(=O)O)=C(COC(C)=O)CS[C@H]12)c1csc(N)n1 [Cefotaxime sodium],inhibition at 5 µM,"sheet LOPAC_screen_w_protease, primary screen with protease, mean of two replicates, read-out: mean",2.42%
same,inhibition at 5 µM,"sheet LOPAC_screen_w_protease, primary screen with protease, replicate 1, read-out: Replicate_1",1.54%
same,inhibition at 5 µM,"sheet LOPAC_screen_w_protease, primary screen with protease, replicate 2, read-out: Replicate_2",3.3%
CC[C@@H]1C(=O)OC[C@@H]1Cc1cncn1C.Cl [(+)-Pilocarpine hydrochloride],mean,[16],0.6668
same,Replicate_1,[17],2.011
same,Replicate_2,[18],-0.6778
CC(CCc1ccccc1)NC(C)C(O)c1ccc(O)cc1 (centres unmarked) [Nylidrin hydrochloride],inhibition at 5 µM,[22],3.76%
same,inhibition at 5 µM,[23],4.88%
same,inhibition at 5 µM,[24],2.65%
CC(=O)NCCc1c[nH]c2ccc(O)cc12 [N-Acetyl-5-hydroxytryptamine],mean (LOPAC_screen_w_protease),[21],1.513
same,Replicate_1 (LOPAC_screen_w_protease),[25],1.947
same,Replicate_2 (LOPAC_screen_w_protease),[26],1.078
COC(=O)[C@@H](N)Cc1ccc(O)c(O)c1.Cl,mean,[13],3.737
same,Replicate_1,[14],4.528
same,Replicate_2,[15],2.946
CC(C)C[C@H](NP(=O)([O-])O[C@H]1O[C@H](C)[C@@H](O)[C@H](O)[C@@H]1O)C(=O)N[C@@H](Cc1c[nH]c2ccccc12)C(=O)[O-].[Na+].[Na+] [Phosphoramidon disodium],mean,[10],0.1697
same,Replicate_1,[11],0.5227
same,Replicate_2,[12],-0.1832
CCCCNc1c(C(=O)OCC)c(C)nc2c1cnn2CC [Tracazolate],inhibition at 5 µM,"sheet LOPAC_screen_w_protease, primary screen with protease, 5 µM, mean of two replicates, read-out: mean",-0.116%
same,inhibition at 5 µM,"sheet LOPAC_screen_w_protease, primary screen with protease, 5 µM, replicate 1, read-out: Replicate_1",0.109%
same,inhibition at 5 µM,"sheet LOPAC_screen_w_protease, primary screen with protease, 5 µM, replicate 2, read-out: Replicate_2",-0.341%
Cc1nc2c([nH]1)c(=O)n(C)c(=O)n2Cc1ccco1 [Furafylline],inhibition at 5 µM,[19],3.1%
same,inhibition at 5 µM,[20],-0.41%
same,mean (LOPAC_screen_w_protease),[21],1.344
Cc1ccc(C(=O)Nc2ccc(S(=O)(=O)O)c3cc(S(=O)(=O)O)cc(S(=O)(=O)O)c23)cc1NC(=O)c1cccc(NC(=O)Nc2cccc(C(=O)Nc3cc(C(=O)Nc4ccc(S(=O)(=O)O)c5cc(S(=O)(=O)O)cc(S(=O)(=O)O)c45)ccc3C)c2)c1 [Suramin hexasodium],inhibition at 5 µM,[7],1.22%
same,inhibition at 5 µM,[8],2.66%
same,inhibition at 5 µM,[9],-0.222%
COc1ccc2c(c1OC)C(=O)O[C@@H]2[C@H]1c2c(cc3c(c2OC)OCO3)CCN1C.Cl [Noscapine hydrchloride],mean (LOPAC_screen_w_protease),[27],1.752
same,Replicate_1 (LOPAC_screen_w_protease),[25],0.9869
COc1cc(C=C(C#N)C#N)cc(O)c1O [Tyrphostin AG 34],mean,[13],3.625
same,Replicate_1,[14],3.8503
same,Replicate_2,[15],3.4006
"CCCCOC(=O)NS(=O)(=O)c1sc(CC(C)C)cc1-c1ccc(Cn2c(CC)nc3c(C)cc(C)nc32)cc1 [L-162,313]",mean (LOPAC_screen_w_protease),[27],1.8394
same,Replicate_1 (LOPAC_screen_w_protease),[25],2.383
same,Replicate_2 (LOPAC_screen_w_protease),[26],1.2958
CCn1cc(C(=O)O)c(=O)c2ccc(Cc3ccccc3)nc21 [Amfonelic acid],inhibition at 5 µM,[22],3.23%
same,inhibition at 5 µM,[23],4.99%
same,inhibition at 5 µM,[24],1.47%
CC(C)NNC(=O)c1ccncc1.O=P(O)(O)O [Iproniazid phosphate],mean,[4],2.591
same,Replicate_1,[5],1.295
same,Replicate_2,[6],3.887
O=S(=O)(O)C1CCNCC1 [Piperidine-4-sulphonic acid],mean,[1],4.585
same,Replicate_1,[2],5.428
same,Replicate_2,[3],3.743
COC(=O)C(C)(N)Cc1ccc(O)cc1.Cl (racemic),mean,[4],2.971
same,Replicate_1,[5],4.293
same,Replicate_2,[6],1.648
